Experimental data taken from US7708799B2, “Dithiocarbamates and phosphite formulations” (priority 2005, dated 2010).

Tested on: Spores of the fungus Mycosphearella sp
Experiment: Spore germination test on amended water agar plates
Assay type: cell-based
Details: agar amended with mancozeb alone at 100 ppm; 4×10^5 spores; 12 hours incubation
Description: The flowable Calcium formulation (named Calciphite) combination plus Mancozeb as described in the above example was tested for its ability to inhibit spore germination as compared to Mancozeb. Water agar plates were prepared and amended with the Calciphite/mancozeb combination (50 ppm) or mancozeb alone (100 ppm). Spores of the fungus Mycosphearella sp at a spore concentration of 4×10^5 were sprayed onto the surface of the plates and incubated for 12 hours after which the plates were assessed for germination.

mancozeb
% spore germination: 81%
